Measured values as given in article PMC5381194, “On-chip in vitro cell-network pre-clinical cardiac toxicity using spatiotemporal human cardiomyocyte measurement on a chip” (Scientific Reports, 2014).
Like-named read-outs stand apart in the source and are kept apart here.

Legend:
[1] = set-up: method as in references and pharmaceutical attachments; settings: clinical report; effective therapeutic plasma concentration; ref references and pharmaceutical attachments; cited from earlier work
[2] = target: hERG (Homo sapiens, UniProt Q12809); experiment: hERG assay: K+ current by patch clamp in hERG expressing CHO-K1 cells; settings: pH 7.4
Description: Supplementary Explanation of Methods [in online]
Measurement of potassium (K+) current by patch clamp in hERG expressing CHO-K1 cells A patch clamp glass electrode was filled with internal solution (KCl: 130 mM, MgCl2: 1 mM, EGTA: 5 mM, MgATP: 5 mM, HEPES: 10 mM, pH 7.20). The electrode was attached to a patch clamp headstage holder and the tip of the electrode was brought into contact with the cell membrane with a micromanipulator under the microscope. Slight negative pressure from suction was created inside the electrode and the patch clamp system AXOPATCH 200B (Axon Instruments) and Clampex 9.2 was used to obtain a measured membrane resistance value (R-memb) greater than 20 megohms. The resting membrane potential was set at -80 mV just to wait to obtain R-memb greater than 1 gigaohms. Then to make whole-cell clamp mode, a strong suction was applied to rupture the cell membrane under the electrode. Cell capacitance and series resistance were compensated. The stimulation protocol (holding potential: -80 mV, depolarization pulse: +50 mV, for 2 s, repolarization pulse: -40 mV, for 2 s, pulse frequency:
0.067 Hz) was applied and the corresponding current was recorded. After the current waveform became stable, the application solutions were added cumulatively from the lowest concentration.
The cells were exposed to each concentration for 5 minutes and washed with Tyrode solution […]
pH 7.40) to observe the recovery after the exposure to the highest concentration. All experiments (n=3) were carried out at room temperature. The cells were perfused with Tyrode solution at the rate of 2.5 ml/min through the experiment as the background flow. The test compound was added to the cells directly via a pipette set nearby the cells at the rate of 350-400 µl/min.
Percentage change from pre-application values in tail peak current (% inhibition) was calculated […]
application/average of the consecutive 4 currents just before the start of the first application (the lowest one)] × 100. The dose levels were selected to describe the dose response curve. The maximum concentration was set to at least approximately 30~100 times its effective therapeutic plasma concentration in consideration of the solubility. […]

[3] = test system: human embryonic stem cell-derived cardiomyocyte cluster (hES-CMC); experiment: On-chip MEA field potential recording of hCM clusters (temporal FPD and STVFPD); settings: for Score (On-chip MEA system, VT/TdP risk): more than 1.9-fold of STVFPD is the border of high risk of VT/TdP; for FPD (ratio) / STVFPD (ratio): 10 μM (Ref. dose ca. 10^2 × CMAX), ratio against the control, mean ± S.E.
[4] = test system: human embryonic stem cell-derived cardiomyocyte cluster (hES-CMC); settings: for Arrest (%) / Fib-like (%): human, 10 min
[5] = clinical VT/TdP risk compiled from the literature; ref literature; cited from earlier work
[6] = test system: guinea pig right ventricular papillary muscle; experiment: APD assay: action potential recording in guinea pig right ventricular papillary muscle; settings: relative ratio against the control, mean
Description: After the current waveform
(n=3) were carried out at room temperature. The cells were perfused with Tyrode solution at the […]
lowest one)] × 100. […] The […]
plasma concentration in consideration of the solubility. […]
(§1) megohms, which was coupled to an Ag-AgCl bath electrode and connected to a microelectrode […]
(§2) amplifier (MEZ-8300, Nihon Koden). […]
(§3) computer system (WinCAPA1.6.6.Aui, Physio-Tech). The components of the action potential analyzed by the computer system are: resting membrane potential (RMP), action potential amplitude (APA), overshoot (OS), action potential duration at 30%, 50% and 90% of repolarization (APD30, APD50 and APD90, respectively) and maximum rate of rising phase (V max = dV/dt max). After an equilibration period for at least one hour, the test compound was added to the organ bath at increasing cumulative concentrations. The administration volume and rate was 20, 40, 140 µl/20 ml organ bath and 1 s/dose. Cardiac action potentials were recorded before and 30 minutes after the exposure of the test compound at each concentration.
(§4) Monophasic action potential duration (MAPD) measurements in isolated Langendorff-perfused female rabbit heart
(§5) Female NZW rabbit were anesthetized by an intravenous injection of thiopental (30 mg/kg) and heparin (500 U/kg). Then the heart was quickly removed and its aorta was cannulated, the bundle of His was sectioned, for perfusion of the coronary artery according to the Langendorff method with constant pressure (initial perfusion pressure: 60-70 mmHg). The heart was perfused at […]
KCl: 4.7 mM, CaCl2: 2.5 mM, MgSO4: 1.2 mM, KH2PO4: 1.2 mM, NaHCO3: 25 mM, glucose:
Two electrocardiogram (ECG) […]
electrodes were held lightly against the epicardium, the positive one on the left ventricle, the […]

[7] = test system: isolated Langendorff-perfused female rabbit heart; experiment: MAPD measurement in isolated Langendorff-perfused female rabbit heart; settings: relative ratio against the control, mean
Description: as §1, §2, §3
The dose levels were selected to describe the dose response curve.
as §4, §5

[8] = hCM clusters, 10 μM, ratio of lethally abnormal events

Sequence of hERG (Q12809 whole entry): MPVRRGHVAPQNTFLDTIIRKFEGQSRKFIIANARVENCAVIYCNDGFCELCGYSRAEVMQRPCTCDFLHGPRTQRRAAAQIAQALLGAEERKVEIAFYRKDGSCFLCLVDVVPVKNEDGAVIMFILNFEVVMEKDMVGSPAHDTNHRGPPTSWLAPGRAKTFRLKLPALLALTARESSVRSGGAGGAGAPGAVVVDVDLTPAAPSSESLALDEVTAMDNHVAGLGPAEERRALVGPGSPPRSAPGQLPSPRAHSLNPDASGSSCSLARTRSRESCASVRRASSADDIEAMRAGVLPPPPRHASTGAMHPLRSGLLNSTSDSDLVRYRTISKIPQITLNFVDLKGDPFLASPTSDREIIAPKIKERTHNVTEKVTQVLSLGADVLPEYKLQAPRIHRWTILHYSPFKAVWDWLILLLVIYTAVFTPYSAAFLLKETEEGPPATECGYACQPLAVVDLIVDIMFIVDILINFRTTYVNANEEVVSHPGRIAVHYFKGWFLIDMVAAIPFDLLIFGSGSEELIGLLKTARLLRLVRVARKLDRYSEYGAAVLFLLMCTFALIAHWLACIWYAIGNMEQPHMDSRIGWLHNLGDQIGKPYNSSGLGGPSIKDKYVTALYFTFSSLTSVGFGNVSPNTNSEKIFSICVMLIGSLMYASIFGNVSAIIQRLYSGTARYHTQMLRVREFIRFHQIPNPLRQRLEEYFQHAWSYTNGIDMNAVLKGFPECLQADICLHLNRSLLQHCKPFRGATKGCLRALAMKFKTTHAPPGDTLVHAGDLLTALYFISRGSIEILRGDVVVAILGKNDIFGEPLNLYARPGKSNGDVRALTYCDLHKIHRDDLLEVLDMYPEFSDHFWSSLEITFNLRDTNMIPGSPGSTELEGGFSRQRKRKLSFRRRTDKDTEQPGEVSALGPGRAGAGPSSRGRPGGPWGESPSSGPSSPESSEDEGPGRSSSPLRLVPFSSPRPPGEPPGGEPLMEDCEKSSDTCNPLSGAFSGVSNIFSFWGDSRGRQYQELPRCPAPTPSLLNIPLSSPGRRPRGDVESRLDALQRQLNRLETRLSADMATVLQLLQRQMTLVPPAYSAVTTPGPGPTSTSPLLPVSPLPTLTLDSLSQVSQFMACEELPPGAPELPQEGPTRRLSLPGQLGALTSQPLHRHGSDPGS

Compound | Cmax [1] [nM] | Score (On-chip MEA system, VT/TdP risk) [3] | VT/VF/TdP (Clinical report) [5] | Arrest (%) ([4]; 10 µM) | Fib-like (%) ([4]; 10 µM) | other results
C[C@H]1COc2c(N3CCN(C)CC3)c(F)cc3c(=O)c(C(=O)O)cn1c23 [Levofloxacin] | 22000 | Low |  |  |  | inhibition at 5 min, 300 µM ([2]; CHO-K1 cells expressing hERG): 13.2%; Arrest (%) ([4]; 1000 µM): 40%; Fib-like (%) ([4]; 1000 µM): 4%
CSc1ccc2c(c1)N(CCC1CCCCN1C)c1ccccc1S2 (centres unmarked) [Thioridazine] | 1800 | High | (+) | 0 | 0 | 
NC(N)=Nc1nc(CSCCC(N)=NS(N)(=O)=O)cs1 [Famotidine] | 190 | Low |  | 0 | 0 | 
COc1c(N2C[C@@H]3CCCN[C@@H]3C2)c(F)cc2c(=O)c(C(=O)O)cn(C3CC3)c12 [Moxifloxacin] | 10000 |  |  |  |  | Arrest (%) ([4]; 100 µM): 0%; Fib-like (%) ([4]; 100 µM): 0%
COc1cc(N)c(Cl)cc1C(=O)NC1CCN(CCCOc2ccc(F)cc2)CC1OC (centres unmarked) [Cisapride] | 180 | High | (+) | 0 | 4 | APD90 prolongation in papillary musole (ratio) ([6]; 1 μM): 1.14 ratio; inhibition at 5 min, 1 µM ([2]; CHO-K1 cells expressing hERG): 90.6%; FPD (ratio) ([3]; hCM clusters): 1.37 ± 0.07 ratio; STVFPD (ratio) ([3]; hCM clusters): 3.82 ± 0.85 ratio; MAPD90 prolongation in Langendorff hearts (ratio) ([7]; 1 μM): 1.37 ratio
COc1ccc([C@@H]2Sc3ccccc3N(CCN(C)C)C(=O)[C@@H]2OC(C)=O)cc1 [Diltiazem] | 110 | Low |  |  |  | Arrest (%) ([4]; 1 µM): 50%; Fib-like (%) ([4]; 1 µM): 0%
CN(C)CCCC1(c2ccc(F)cc2)OCc2cc(C#N)ccc21 (centres unmarked) [Citalopram] | 270 | High | (+) | 12 | 0 | APD90 prolongation in papillary musole (ratio) ([6]; 10 μM): 0.95 ratio; inhibition at 10 µM [2]: 83.5%; FPD (ratio) ([3]; hCM clusters): 0.86 ± 0.04 ratio; STVFPD (ratio) ([3]; hCM clusters): 2.75 ± 0.78 ratio
O=C(NCC1CCCCN1)c1cc(OCC(F)(F)F)ccc1OCC(F)(F)F (centres unmarked) [Flecainide] | 430 | High |  |  |  | inhibition at 5 min, 10 µM ([2]; CHO-K1 cells expressing hERG): 88.3%; Arrest (%) ([4]; 100 µM): 13%; Fib-like (%) ([4]; 100 µM): 0%
CC(C)NCC(O)c1ccc(NS(C)(=O)=O)cc1 (racemic) [DL-sotalol] | 2500 |  |  |  |  | inhibition at 5 min, 30 µM ([2]; CHO-K1 cells expressing hERG): 19.2%; Score (On-chip MEA system, VT/TdP risk) [4]: High; Arrest (%) ([4]; 1000 µM): 5%; Fib-like (%) ([4]; 1000 µM): 0%
Fc1ccc([C@@H]2CCNC[C@H]2COc2ccc3c(c2)OCO3)cc1 [Paroxetin] | 70 | High |  |  |  | FPD (ratio) ([3]; hCM clusters): 1.30 ± 0.06 ratio; STVFPD (ratio) ([3]; hCM clusters): 2.27 ± 0.41 ratio; Arrest (%) [3, 8]: 13%; Fib-like (%) [3, 8]: 0%
COc1ccc(CCN2CCC(Nc3nc4ccccc4n3Cc3ccc(F)cc3)CC2)cc1 [Astemizole] | 2 | High | (+) |  |  | Arrest (%) ([4]; 0.1 µM): 0%; Fib-like (%) ([4]; 0.1 µM): 14%
CC(C)COCC(CN(Cc1ccccc1)c1ccccc1)N1CCCC1 (centres unmarked) [Bepridil] | 300 | High | (+) | 5 | 5 | APD90 prolongation in papillary musole (ratio) ([6]; 10 μM): 1.02 ratio; inhibition at 5 min, 0.3 µM ([2]; CHO-K1 cells expressing hERG): 61.9%; FPD (ratio) ([3]; hCM clusters): 1.21 ± 0.12 ratio; STVFPD (ratio) ([3]; hCM clusters): 4.74 ± 2.26 ratio; MAPD90 prolongation in Langendorff hearts (ratio) ([7]; 10 μM): 1.12 ratio
CC(C)(C)c1ccc(C(O)CCCN2CCC(C(O)(c3ccccc3)c3ccccc3)CC2)cc1 (centres unmarked) [Terfenadine] | 220 | High | (+) | 21 | 3 | STVFPD in hCM clusters, long-term observation ([3]; 0.3 μM, even at 72 h): no significant increase; time at which FPD reached the risk level ([3]; 0.3 μM, hCM clusters, long-term observation): 24 h; FPD in hCM clusters, long-term observation ([3]; 0.3 μM, observed 8 h after application): gradual increase
CC(C)(C)c1ccc(C(=O)CCCN2CCC(OC(c3ccccc3)c3ccccc3)CC2)cc1 [Ebastine] | 160 | Low |  |  |  | Arrest (%) ([4]; 1 µM): 0%; Fib-like (%) ([4]; 1 µM): 0%
